The record followed here is patent US11053213B2, “Pharmaceutical compounds” (ALMAC DISCOVERY LIMITED, priority 2016, dated 2021).

For this assay, the target named is USP19 (Homo sapiens (Human), UniProt O94966). Briefly: USP19 activity assay (fluorescence polarisation, Ubiquitin-Lys-TAMRA substrate). It is filed as biochemical. As to conditions: full-length USP19 2.5 nM, 30 min pre-incubation, Ub substrate 500 nM; average of at least two duplicate experiments. (Polarisation of emitted light reports the rotation of a fluorescent probe.)
Chain of USP19 (O94966 whole entry): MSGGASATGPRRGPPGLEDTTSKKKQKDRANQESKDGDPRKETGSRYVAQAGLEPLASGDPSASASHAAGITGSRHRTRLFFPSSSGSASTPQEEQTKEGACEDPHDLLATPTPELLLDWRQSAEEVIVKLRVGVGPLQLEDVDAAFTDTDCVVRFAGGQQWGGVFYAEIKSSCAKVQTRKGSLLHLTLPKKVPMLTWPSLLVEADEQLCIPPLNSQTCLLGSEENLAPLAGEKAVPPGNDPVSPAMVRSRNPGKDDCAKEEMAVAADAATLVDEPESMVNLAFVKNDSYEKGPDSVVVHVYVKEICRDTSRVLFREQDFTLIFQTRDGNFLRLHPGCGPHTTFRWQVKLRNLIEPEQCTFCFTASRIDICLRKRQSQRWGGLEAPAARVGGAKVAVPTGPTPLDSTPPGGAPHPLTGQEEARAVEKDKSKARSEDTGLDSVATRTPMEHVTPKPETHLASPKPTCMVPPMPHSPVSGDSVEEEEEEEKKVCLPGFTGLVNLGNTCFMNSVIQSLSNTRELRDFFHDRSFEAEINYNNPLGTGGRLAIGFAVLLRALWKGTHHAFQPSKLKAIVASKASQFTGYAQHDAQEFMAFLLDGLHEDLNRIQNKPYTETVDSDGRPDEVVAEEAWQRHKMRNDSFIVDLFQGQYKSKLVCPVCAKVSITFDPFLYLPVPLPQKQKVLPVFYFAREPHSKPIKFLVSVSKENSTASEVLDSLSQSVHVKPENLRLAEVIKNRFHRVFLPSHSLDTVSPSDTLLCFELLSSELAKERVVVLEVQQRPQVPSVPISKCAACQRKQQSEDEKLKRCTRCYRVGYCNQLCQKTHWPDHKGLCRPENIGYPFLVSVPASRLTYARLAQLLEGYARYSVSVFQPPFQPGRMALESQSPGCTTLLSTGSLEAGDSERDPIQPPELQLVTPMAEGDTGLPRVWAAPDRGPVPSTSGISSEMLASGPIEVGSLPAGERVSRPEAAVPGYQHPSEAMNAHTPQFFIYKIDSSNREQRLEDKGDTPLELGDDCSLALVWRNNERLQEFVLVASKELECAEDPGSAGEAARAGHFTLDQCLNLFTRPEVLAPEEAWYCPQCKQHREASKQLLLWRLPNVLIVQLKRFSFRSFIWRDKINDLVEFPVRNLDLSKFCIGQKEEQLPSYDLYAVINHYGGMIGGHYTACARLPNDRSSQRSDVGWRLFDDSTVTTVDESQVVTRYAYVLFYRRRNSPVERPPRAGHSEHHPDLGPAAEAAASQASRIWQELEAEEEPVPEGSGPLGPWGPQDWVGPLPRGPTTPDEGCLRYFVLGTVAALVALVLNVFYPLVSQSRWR
One may read the IC50 as the concentration at which inhibition is half-maximal. As to `CN(C)C(=O)c1cn(CC2(O)CCN(C(=O)C34CC(C3)C4)CC23CCCC3)c(=O)cc1-c1ccccc1` (centres unmarked) [Example 191, 1-((7-(Bicyclo[1.1.1]pentane-1-carbonyl)-10-hydroxy-7-azaspiro[4.5]decan-10-yl)methyl)-N,N-dimethyl-6-oxo-4-phenyl-1,6-dihydropyridine-3-carboxamide], the IC50 lay in the range of 50 to 250 µM.

`CN(C)C(=O)c1cn(CC2(O)CCN(C(=O)c3ncoc3-c3ccccc3)CC23CCCC3)c(=O)cc1-c1ccccc1` (centres unmarked) [Example 192, 1-((10-Hydroxy-7-(5-phenyloxazole-4-carbonyl)-7-azaspiro[4.5]decan-10-yl)methyl)-N,N-dimethyl-6-oxo-4-phenyl-1,6-dihydropyridine-3-carboxamide]: the IC50 fell in the range of 5 to 50 µM.

Consider `CN(C)C(=O)c1cn(CC2(O)CCN(C(=O)c3ncoc3C3CC3)CC23CCCC3)c(=O)cc1-c1ccccc1` (centres unmarked) [Example 193, 1-((7-(5-Cyclopropyloxazole-4-carbonyl)-10-hydroxy-7-azaspiro[4.5]decan-10-yl)methyl)-N,N-dimethyl-6-oxo-4-phenyl-1,6-dihydropyridine-3-carboxamide], for which the IC50 was 5 to 50 µM.

Take `CN(C)C(=O)c1cn(CC2(O)CCN(C(=O)COC3CCCCC3)CC23CCCC3)c(=O)cc1-c1ccccc1` (centres unmarked) [Example 194, 1-((7-(2-(Cyclohexyloxy)acetyl)-10-hydroxy-7-azaspiro[4.5]decan-10-yl)methyl)-N,N-dimethyl-6-oxo-4-phenyl-1,6-dihydropyridine-3-carboxamide]: the IC50 was 5 to 50 µM.

Take `CN(C)C(=O)c1cn(CC2(O)CCN(C(=O)C3CC34CC4)CC23CCCC3)c(=O)cc1-c1ccccc1` (centres unmarked) [Example 195, 1-((10-Hydroxy-7-(spiro[2.2]pentane-1-carbonyl)-7-azaspiro[4.5]decan-10-yl)methyl)-N,N-dimethyl-6-oxo-4-phenyl-1,6-dihydropyridine-3-carboxamide]: the IC50 was 5 to 50 µM.

For the compound `CN(C)C(=O)c1cn(CC2(O)CCN(C(=O)C3CCC(C(F)(F)F)C3)CC23CCCC3)c(=O)cc1-c1ccccc1` (centres unmarked) [Example 196, 1-((10-Hydroxy-7-(3-(trifluoromethyl)cyclopentane-1-carbonyl)-7-azaspiro[4.5]decan-10-yl)methyl)-N,N-dimethyl-6-oxo-4-phenyl-1,6-dihydropyridine-3-carboxamide], the IC50 lay within 0.5 to 5 µM.

Consider `CC(C)CC(C)C(=O)N1CCC(O)(Cn2cc(C(=O)N(C)C)c(-c3ccccc3)cc2=O)C2(CCCC2)C1` (centres unmarked) [Example 197], for which the half-inhibitory concentration (IC50) is under 0.5 µM.

Regarding `CN(C)C(=O)c1cn(CC2(O)CCN(C(=O)c3cccn3Cc3ccccc3)CC23CCCC3)c(=O)cc1-c1ccccc1` (centres unmarked) [Example 198, 1-((7-(1-Benzyl-1H-pyrrole-2-carbonyl)-10-hydroxy-7-azaspiro[4.5]decan-10-yl)methyl)-N,N-dimethyl-6-oxo-4-phenyl-1,6-dihydropyridine-3-carboxamide], the IC50 was in the range of 5 to 50 µM.

For the compound `CC(OC1CCCCC1)C(=O)N1CCC(O)(Cn2cc(C(=O)N(C)C)c(-c3ccccc3)cc2=O)C2(CCCC2)C1` (centres unmarked) [Example 199, 1-((7-(2-(Cyclohexyloxy)propanoyl)-10-hydroxy-7-azaspiro[4.5]decan-10-yl)methyl)-N,N-dimethyl-6-oxo-4-phenyl-1,6-dihydropyridine-3-carboxamide], the IC50 fell in the range of 5 to 50 µM.

As for `CC1(C)CN(C(=O)[C@H](CO)CC2CCC2)CCC1(O)Cn1cnc(-c2ccccc2F)cc1=O` (stereo partly drawn) [Example 200, 3-((1-((S)-3-Cyclobutyl-2-(hydroxymethyl)propanoyl)-4-hydroxy-3,3-dimethylpiperidin-4-yl)methyl)-6-(2-fluorophenyl)pyrimidin-4(3H)-one], the IC50 was 0.5 to 5 µM.

As to `CN(C)C(=O)c1cn(CC2(O)CCN(C(=O)COC3CCC3)CC23CCCC3)c(=O)cc1-c1ccccc1` (centres unmarked) [Example 201, 1-((7-(2-Cyclobutoxyacetyl)-10-hydroxy-7-azaspiro[4.5]decan-10-yl)methyl)-N,N-dimethyl-6-oxo-4-phenyl-1,6-dihydropyridine-3-carboxamide], the IC50 lay within 5 to 50 µM.

On to `CN(C)C(=O)c1cn(CC2(O)CCN(C(=O)C3CCC(F)(F)C3)CC23CCCC3)c(=O)cc1-c1ccccc1` (centres unmarked) [Example 202, 1-((7-(3,3-Difluorocyclopentane-1-carbonyl)-10-hydroxy-7-azaspiro[4.5]decan-10-yl)methyl)-N,N-dimethyl-6-oxo-4-phenyl-1,6-dihydropyridine-3-carboxamide], for which the IC50 was 50 to 250 µM.

With `CN(C)C(=O)c1cn(CC2(O)CCN(C(=O)C(O)Cc3ccccc3)CC23CCCC3)c(=O)cc1-c1ccccc1` (centres unmarked) [Example 203, 1-((10-Hydroxy-7-(2-hydroxy-3-phenylpropanoyl)-7-azaspiro[4.5]decan-10-yl)methyl)-N,N-dimethyl-6-oxo-4-phenyl-1,6-dihydropyridine-3-carboxamide], the IC50 lay in the range of 0.5 to 5 µM.

As to `C[C@H](CC(F)(F)F)C(=O)N1CC[C@@](O)(Cn2cc(C(=O)N(C)C)c(-c3ccccc3)cc2=O)C(C)(C)C1` [Example 204, 1-(((S)-4-Hydroxy-3,3-dimethyl-1-((R)-4,4,4-trifluoro-2-methylbutanoyl)piperidin-4-yl)methyl)-N,N-dimethyl-6-oxo-4-phenyl-1,6-dihydropyridine-3-carboxamide], the IC50 lay in the range of 0.5 to 5 µM.

In the case of `C[C@H](CC1CCCCC1)C(=O)N1CC[C@@](O)(Cn2cc(C(=O)N(C)C)c(-c3ccccc3F)cc2=O)C(C)(C)C1` [Example 205, 1-(((S)-1-((R)-3-Cyclohexyl-2-methylpropanoyl)-4-hydroxy-3,3-dimethylpiperidin-4-yl)methyl)-4-(2-fluorophenyl)-N,N-dimethyl-6-oxo-1,6-dihydropyridine-3-carboxamide], the IC50 is under 0.5 µM.

Consider `C[C@H](CC1CCCCC1)C(=O)N1CC[C@@](O)(Cn2cc(C(=O)N3CCNCC3)c(-c3ccccc3F)cc2=O)C(C)(C)C1` [Example 206, 1-(((S)-1-((R)-3-Cyclohexyl-2-methylpropanoyl)-4-hydroxy-3,3-dimethylpiperidin-4-yl)methyl)-4-(2-fluorophenyl)-5-(piperazine-1-carbonyl)pyridin-2(1H)-one], for which the IC50 was under 0.5 µM.

In the case of `CN(C)C(=O)c1cn(C[C@]2(O)CCN(C(=O)C(CC(F)(F)F)CC(F)(F)F)CC2(C)C)c(=O)cc1-c1ccccc1` [Example 207, (S)-1-((4-Hydroxy-3,3-dimethyl-1-(4,4,4-trifluoro-2-(2,2,2-trifluoroethyl)butanoyl)piperidin-4-yl)methyl)-N,N-dimethyl-6-oxo-4-phenyl-1,6-dihydropyridine-3-carboxamide], the concentration for half-maximal inhibition (IC50) lay within 5 to 50 µM.

Consider `C[C@H](CC1CCCCC1)C(=O)N1CC[C@@](O)(Cn2cc(C(=O)N3CCNC[C@H]3CO)c(-c3ccccc3)cc2=O)C(C)(C)C1` [Example 208, 1-(((S)-1-((R)-3-Cyclohexyl-2-methylpropanoyl)-4-hydroxy-3,3-dimethylpiperidin-4-yl)methyl)-5-((S)-2-(hydroxymethyl)piperazine-1-carbonyl)-4-phenylpyridin-2(1H)-one], for which the IC50 was under 0.5 µM.

Consider `C[C@H](CC1CCCCC1)C(=O)N1CC[C@](O)(Cn2cc(C(=O)N(C)C)c(-c3ccccc3)cc2=O)C2(CCCC2)C1` [Example 209, 1-(((R)-7-((R)-3-Cyclohexyl-2-methylpropanoyl)-10-hydroxy-7-azaspiro[4.5]decan-10-yl)methyl)-N,N-dimethyl-6-oxo-4-phenyl-1,6-dihydropyridine-3-carboxamide], for which the IC50 was 5 to 50 µM.

For the compound `C[C@H](CC1CCCCC1)C(=O)N1CC[C@](O)(Cn2cc(C(=O)N3CCNCC3)c(-c3ccccc3)cc2=O)C2(CCCC2)C1` [Example 210, 1-(((R)-7-((R)-3-Cyclohexyl-2-methylpropanoyl)-10-hydroxy-7-azaspiro[4.5]decan-10-yl)methyl)-4-phenyl-5-(piperazine-1-carbonyl)pyridin-2(1H)-one], the IC50 was 5 to 50 µM.

In the case of `C[C@H](CC1CCCCC1)C(=O)N1CC[C@@](O)(Cn2cc(C(=O)N(C)C)c(-c3ccccc3)cc2=O)C2(CCCC2)C1` [Example 211, 1-(((S)-7-((R)-3-Cyclohexyl-2-methylpropanoyl)-10-hydroxy-7-azaspiro[4.5]decan-10-yl)methyl)-N,N-dimethyl-6-oxo-4-phenyl-1,6-dihydropyridine-3-carboxamide], the IC50 is under 0.5 µM.

Regarding `C[C@H](CC1CCCCC1)C(=O)N1CC[C@@](O)(Cn2cc(C(=O)N3CCNCC3)c(-c3ccccc3)cc2=O)C2(CCCC2)C1` [Example 212, 1-(((S)-7-((R)-3-Cyclohexyl-2-methylpropanoyl)-10-hydroxy-7-azaspiro[4.5]decan-10-yl)methyl)-4-phenyl-5-(piperazine-1-carbonyl)pyridin-2(1H)-one], the IC50 is under 0.5 µM.

As to `C[C@@H]1CN(C(=O)c2cn(C[C@]3(O)CCN(C(=O)[C@H](C)CC4CCCCC4)CC3(C)C)c(=O)cc2-c2ccccc2)CCN1` [Example 213, 1-(((S)-1-((R)-3-Cyclohexyl-2-methylpropanoyl)-4-hydroxy-3,3-dimethylpiperidin-4-yl)methyl)-5-((R)-3-methylpiperazine-1-carbonyl)-4-phenylpyridin-2(1H)-one], the IC50 was under 0.5 µM.

`C[C@H](CC1CCC1)C(=O)N1CC[C@@](O)(Cn2cc(C(=O)N(C)C)c(-c3ccccc3)cc2=O)C2(CCCC2)C1` [Example 214, 1-(((S)-7-((R)-3-Cyclobutyl-2-methylpropanoyl)-10-hydroxy-7-azaspiro[4.5]decan-10-yl)methyl)-N,N-dimethyl-6-oxo-4-phenyl-1,6-dihydropyridine-3-carboxamide]: the half-inhibitory concentration (IC50) is under 0.5 µM.

Regarding `C[C@H](CC1CCC1)C(=O)N1CC[C@@](O)(Cn2cc(C(=O)N3CCNCC3)c(-c3ccccc3)cc2=O)C2(CCCC2)C1` [Example 215, 1-(((S)-7-((R)-3-Cyclobutyl-2-methylpropanoyl)-10-hydroxy-7-azaspiro[4.5]decan-10-yl)methyl)-4-phenyl-5-(piperazine-1-carbonyl)pyridin-2(1H)-one], the IC50 was under 0.5 µM.

As to `C[C@H](CC(F)(F)F)C(=O)N1CC[C@@](O)(Cn2cc(C(=O)N(C)C)c(-c3ccccc3)cc2=O)C2(CCCC2)C1` [Example 216, 1-(((S)-10-Hydroxy-7-((R)-4,4,4-trifluoro-2-methylbutanoyl)-7-azaspiro[4.5]decan-10-yl)methyl)-N,N-dimethyl-6-oxo-4-phenyl-1,6-dihydropyridine-3-carboxamide], the 50% inhibitory concentration (IC50) is under 0.5 µM.
